Experimental data published in PubChem BioAssay (NCI).
Values joined by “and” are separate entries in the source; they are usually repeats but may differ in a detail not shown here. Equal values may be shown once.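 Values below derive from 48-hour exposures of cells grown in 96-well plates, with endpoints linearly interpolated between the two concentrations bracketing the appropriate inhibition level. GI50 is the concentration that inhibits growth by half. Definition used: TGI = concentration required for complete inhibition of growth.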

Legend:
Test in all cases: DTP human tumour cell line panel, 48 h
[1] = system: MCF7 breast
[2] = system: TK-10 renal
[3] = system: NCI-H460 lung
[4] = system: LOX IMVI melanoma
[5] = system: MOLT-4 leukemia
[6] = system: DU-145 prostate
[7] = system: NCI/ADR-RES ovarian
[8] = system: NCI-H23 lung
[9] = system: EKVX NSCLC
[10] = system: MDA-MB-435

Structure (SMILES)	TGI [1] [µM]	TGI [2] [µM]	TGI [3]	TGI [4] [µM]	TGI [5] [µM]	TGI [6] [µM]	TGI [7] [µM]	TGI [8] [µM]	TGI [9] [µM]	TGI [10] [µM]	GI50 [1] [µM]	GI50 [2] [µM]	GI50 [3] [µM]	GI50 [4] [µM]	GI50 [5] [µM]	GI50 [6] [µM]	GI50 [7] [µM]	GI50 [8] [µM]	GI50 [9] [µM]	GI50 [10] [µM]
CC(C)(O)CO/N=C1\C(c2c(O)[nH]c3ccccc23)=Nc2ccccc21	7.16	8.68	9.71 µM	> 24.3	> 43.1	> 22.2	> 64.8	12.7	> 36.3	> 42.3	–	–	–	–	–	–	–	–	–	–
c1ccc(CCN2CCOCC2)nc1	> 100	> 100	> 100 µM	> 100	–	> 100	> 100	> 100	> 100	> 100	–	–	–	–	–	–	–	–	–	–
c1ccc2sc(C3(N4CCC5(CC4)OCCO5)CCCCC3)cc2c1	> 100	> 100	> 100 µM	> 100	> 100	> 100	> 100	> 100	> 100	> 100	–	–	–	–	–	–	–	–	–	–
NC(=O)Nc1ccc(C(=O)NCCCNC(=O)c2ccc(NC(N)=O)cc2)cc1	> 100	> 100	> 100 µM	> 100	> 100	> 100	> 100	> 100	> 100	> 100	–	–	–	–	–	–	–	–	–	–
CCCC1=C(C(=O)OCC)C(c2ccccc2OC)C(C#N)=C(N)O1 (centres undefined)	> 100	> 100	> 100 µM	> 100	89.8	> 100	> 100	> 100	> 100	> 100	28.4	46.1	39.8	29.9	26.1	29.3	37.6	> 100	> 100	46.3
COc1ccccc1/C=C/c1c(N)ncnc1Nc1cccc(Cl)c1	> 100	44.1	57.1 µM	–	> 100	> 100	–	47	> 100	33.1	–	–	–	–	–	–	–	–	–	–
CN=C(N)/N=C(\N)Nc1cc2ccccc2c2ccccc12	26.1	26	24.4 µM	29.7	34	32.3	49.9	33.2	31.8	32.4	–	–	–	–	–	–	–	–	–	–
O=C1/C(=C/c2ccc(Cl)cc2)N=C(c2ccccc2)N1c1nc2c(Cl)cc(Cl)cc2s1	> 100	> 100	> 100 µM	53.4	24.7	> 100	81.3	–	68.9	86.2	–	–	–	–	–	–	–	–	–	–
COc1c(O)c(O)c2c(c1O)C(=O)c1cc(C)cc(O)c1C2=O	> 100	> 100	> 78 µM	> 100	> 100	> 100	47.3	> 100	> 100	> 100	–	–	–	–	–	–	–	–	–	–
CCOC(=O)C(=O)Nc1c(CC)cccc1C(C)CC (centres undefined)	–	> 100	> 100 µM	> 100	> 100	–	–	> 100	> 100	–	–	–	–	–	–	–	–	–	–	–
Nc1cccc2c1C1=NNC(=O)CC1C2 (centres undefined)	> 100	–	> 100 µM	> 100	> 100	–	> 100	> 20.3	> 100	–	–	–	–	–	–	–	–	–	–	–
O=C1C(c2c(O)[nH]c3ccccc23)=Nc2ccc(Br)cc21	18.2	65.2	> 100 µM	> 100	40.8	> 100	> 100	> 100	61.1	> 100	–	–	–	–	–	–	–	–	–	–
Cc1c(NC(=O)c2cc([N+](=O)[O-])cc([N+](=O)[O-])c2)c(=O)n(-c2ccccc2)n1C	> 100	> 100	> 100 µM	> 100	> 100	> 100	> 100	> 100	–	> 100	–	–	–	–	–	–	–	–	–	–
C[C@H](N[C@H]1CCC[C@]1(O)C#Cc1ccc2c(c1)OCO2)c1ccccc1	> 25	> 25	> 25 µM	> 25	> 25	> 25	> 25	> 25	> 25	> 25	–	–	–	–	–	–	–	–	–	–
Cc1ccc2ccc3ccc(C)nc3c2n1	0.93	> 100	> 100 µM	> 100	> 100	> 100	> 100	> 100	> 100	> 100	–	–	–	–	–	–	–	–	–	–
O=C1C(=c2cc3c(c4ccccc24)=NC24CCCCC2C(c2ccccc2)C=C(c2ccccc2)N34)C(=O)c2ccccc21 (centres undefined)	> 100	> 100	–	> 100	64.7	> 100	–	–	> 100	70.8	–	–	–	–	–	–	–	–	–	–
O=C(Nc1sccc1S(=O)(=O)c1ccc(Cl)cc1)c1ccccc1	> 100	> 100	> 100 µM	> 100	> 100	> 100	> 100	> 100	> 100	> 100	–	–	–	–	–	–	–	–	–	–
C/C=C1/CN2CCC34c5ccccc5N(C)C23C2CC1C4(C(=O)OC)C(O)O2 (centres undefined)	> 100	> 100	> 100 µM	> 100	> 100	> 100	> 100	> 100	> 100	> 100	–	–	–	–	–	–	–	–	–	–
Cc1c2cc[n+](C)cc2c(C)c2c1[nH]c1ccc(Cl)cc12	15.9	61.3	54 µM	77.8	58.4	30.5	> 100	9.12	14.1	> 64.4	–	–	–	–	–	–	–	–	–	–
CSc1ccc(-c2cc(-c3nc4ccccc4[nH]3)nc(N)c2C#N)cc1	54.6	99.7	72.5 µM	44	37.1	66.9	> 100	99.5	> 100	47.2	–	–	–	–	–	–	–	–	–	–
C=Cc1cc(OC)c2c(c1)c(=O)oc1c2cc(OC)c2c(O)ccc(C3OC(C)C(O)C(C)(O)C3O)c21 (centres undefined)	0.36	0.00855	0.00652 µM and 0.0584 µM	–	–	0.00897	–	–	–	0.00365	3.58e-05	–	0.000484	0.000281	1.98e-05	–	0.000659	0.000113	0.000589	–
C[C@@H](CO)C1=CC(C#C[Si](C)(C)C)N(C(=O)Oc2ccccc2)c2ccccc21 (some centres undefined)	–	79.5	37.4 µM	32.4	> 100	48.1	31.3	23.1	53.7	15.5	–	–	–	–	–	–	–	–	–	–
Cc1ccc([N+](=O)[O-])cc1S(=O)(=O)Nc1ccc(C2=NN(C(=O)c3ccccc3)C(c3cccs3)C2)cc1 (centres undefined)	> 100	75.1	–	> 100	> 100	> 100	> 100	61.7	67.7	> 100	–	–	–	–	–	–	–	–	–	–
CNS(=O)(=O)c1ccc2[nH]c(O)c(C3=Nc4ccccc4C3=O)c2c1	–	> 100	> 100 µM	> 100	> 100	> 100	> 100	> 100	> 100	> 100	–	–	–	–	–	–	–	–	–	–
N#CCCOCN(CO)c1nc(N(CO)COCCC#N)nc(N(CO)COCCC#N)n1	–	91.2	81.3 µM	> 100	50.7	–	–	71.5	93.7	–	–	–	–	–	–	–	–	–	–	–
COc1cc(NC(=O)CSc2nc3ccccc3c(=O)n2CCc2ccccc2)cc(OC)c1OC	> 100	3.81	–	> 100	> 100	> 100	> 100	–	> 100	–	4.44	1.81	–	4.11	> 100	4.98	3.77	–	4.8	–
O=C(NCCNc1nccc(-c2c(-c3cccc(O)c3)nc3sccn23)n1)Nc1cccc(C(F)(F)F)c1	16	11.1	20.8 µM	26.2	14.6	30	> 100	32.5	36.6	4.94	3.57	3.66	4.79	4.05	3.6	5.37	26.9	4.62	4.16	2.04
CC(=O)OC[C@@]1(C)[C@@H]2[C@@H]3[C@@]4(CO[C@]3(C)C(=O)[C@@]3(O)C[C@H](C)[C@H](OC(C)=O)[C@@H]3[C@H]4OC(C)=O)[C@H](OC(=O)c3ccccc3)C[C@@H]21	> 100	> 100	> 100 µM	> 100	> 100	> 100	> 100	> 100	> 100	> 100	–	–	–	–	–	–	–	–	–	–
